For one compound, IC50 results are on record in patent US12134617B1, “Pyrimido[1′6′:1,5]pyrazolo[4,3-c][1,7]naphthyridines as CK2 inhibitors” (KING FAISAL UNIVERSITY, priority 2024, dated 2024).

One test deals with A375 (melanoma). As to the kind of experiment: In vitro cytotoxic activity (MTT) assay, A375. Type of test: cell-based. The following applies: Homo sapiens, A-375; A375 cells, exposed for 96 hours, 50% inhibition of cell proliferation; read-out: Cytotoxicity activity IC50, A375 (melanoma). On the procedure:
(§1) In Vitro Cytotoxic Activity Assay
(§2) Compounds 1-16 were screened for their in vitro cytotoxic activity utilizing a 3-(4,5-dimethyl-thiazol-2-yl)-2,5-diphenyltetrazolium bromide (MTT) assay against selected cancer human cell lines consisting of PC3 (prostate), HCT116 (colon), A375 (melanoma), H1299 (lung), MIAPaCa-2 (pancreas), HL60 (leukemia), MCF7 (breast), MDA-MB-231 (breast) (T. Mosmann, J. Immunol. Meth., 1983, 65, 55-63). The cells were cultured at 37° C. in RMPI1640 medium supplemented with 10% fetal bovine serum, 50 IU/mL penicillin, and 50 μg/mL streptomycin in a 5% CO2 incubator. All cells were sub-cultured 3 times/week by trypsinisation. Viable cells were seeded and allowed to adhere for 12 hours before a test drug was added in 96-well plates at an initial density of 1.0×10^5 cells/mL. Tumor cell lines were separately exposed to various concentrations of the tested compounds followed by incubation at a temperature of 37° C. during 96 hours inside a medium of fresh RMPI 1640. Cells were subsequently incubated at 37° C. using MTT at 0.5 mg/mL during 4 hours. After removal of supernatant, formazan crystals were dissolved in isopropanol and the optical density was measured at 570 nm. CX-4945 was used as a positive control.

In a further test the test system is PC3 (prostate). As to the kind of experiment: In vitro cytotoxic activity (MTT) assay, PC3. It is filed as cell-based. The note with it: Homo sapiens, PC-3; PC3 cells, exposed for 96 hours, 50% inhibition of cell proliferation; read-out: Cytotoxicity activity IC50, PC3 (prostate). On the procedure:
as §1, §2

The test system of a further test is HL60 (leukemia). The experiment in a line: In vitro cytotoxic activity (MTT) assay, HL60. The note with it: Homo sapiens, HL-60; HL60 cells, exposed for 96 hours, 50% inhibition of cell proliferation; read-out: Cytotoxicity activity IC50, HL60 (leukemia). It is filed as cell-based. The method, then: as §1, §2
The subject of the next test is MIAPaCa-2 (pancreas). As to the kind of experiment: In vitro cytotoxic activity (MTT) assay, MIAPaCa-2. It is filed as cell-based. The following applies: Homo sapiens, MIA PaCa-2; MIAPaCa-2 cells, exposed for 96 hours, 50% inhibition of cell proliferation; read-out: Cytotoxicity activity IC50, MIAPaCa-2 (pancreas). On the procedure:
as §1, §2

For a further test, the system named is HCT116 (colon). The experiment in a line: In vitro cytotoxic activity (MTT) assay, HCT116. Type of test: cell-based. The following applies: Homo sapiens, HCT-116; HCT116 cells, exposed for 96 hours, 50% inhibition of cell proliferation; read-out: Cytotoxicity activity IC50, HCT116 (colon). The method, then:
as §1, §2

Test [1] addresses T1, recombinant human CK2 (RRββ-holoenzyme) (Homo sapiens, UniProt P68400).
T1 construct: purchased Millipore
As to the kind of experiment: CK2 Kinase Assay (33P-ATP, filter plate). It is filed as biochemical. The following applies: recombinant human CK2, final ATP concentration 15 μM, 10 min at 30° C.; read-out: protein kinase CK2 IC50. The method, then:
Evaluation of Inhibitory Activity on Protein Kinase CK2
CK2 Kinase Assay was conducted using the protocol as described in Pierre F. et al; J. Med. Chem. 2011, 54, 635-654. The tested compounds in aqueous solution were added at a volume of 10 μL to a reaction mixture comprising 10 μL of assay dilution buffer (ADB; 20 mM MOPS, pH 7.2, 25 mM β-glycerol phosphate, 5 mM EGTA, 1 mM sodium orthovanadate, and 1 mM dithiothreitol), 10 μL of substrate peptide (RRRDDDSDDD, dissolved in ADB at a concentration of 1 mM), 10 μL of recombinant human CK2 (RRββ-holoenzyme, 25 ng dissolved in ADB; Millipore). Reactions were initiated by the addition of 10 μL of ATP solution (90% 75 mMMgCl2, 75 μM ATP (final ATP concentration: 15 μM) dissolved in ADB; 10% [γ-33P] ATP (stock 1mCi/100 μL; 3000 Ci/mmol (Perkin-Elmer) and maintained for 10 min at 30° C. The reactions were quenched with 100 μL of 0.75% phosphoric acid and then transferred to and filtered through a phosphor cellulose filter plate (Millipore). After washing each well five times with 0.75% phosphoric acid, the plate was dried under vacuum for 5 min and, following the addition of 15 μL of scintillation fluid to each well, the residual radioactivity was measured using a Wallac luminescence counter. The IC50 values were derived from eight concentrations of test inhibitors.

The test system of another test is H1299 (lung). As to the kind of experiment: In vitro cytotoxic activity (MTT) assay, H1299. Type of test: cell-based. The note with it: Homo sapiens, NCI-H1299; H1299 cells, exposed for 96 hours, 50% inhibition of cell proliferation; read-out: Cytotoxicity activity IC50, H1299 (lung). On the procedure: as §1, §2
In a further test the test system is MCF7 (breast). The experiment in a line: In vitro cytotoxic activity (MTT) assay, MCF7. The following applies: Homo sapiens; MCF7 cells, exposed for 96 hours, 50% inhibition of cell proliferation; read-out: Cytotoxicity activity IC50, MCF7 (breast). Type of test: cell-based. On the procedure: as §1, §2
The subject of the next test is MDA-MB-231 (breast). The experiment in a line: In vitro cytotoxic activity (MTT) assay, MDA-MB-231. Type of test: cell-based. The note with it: Homo sapiens; MDA-MB-231 cells, exposed for 96 hours, 50% inhibition of cell proliferation; read-out: Cytotoxicity activity IC50, MDA-MB-231 (breast). The method, then:
as §1, §2

T1 sequence (P68400 whole entry): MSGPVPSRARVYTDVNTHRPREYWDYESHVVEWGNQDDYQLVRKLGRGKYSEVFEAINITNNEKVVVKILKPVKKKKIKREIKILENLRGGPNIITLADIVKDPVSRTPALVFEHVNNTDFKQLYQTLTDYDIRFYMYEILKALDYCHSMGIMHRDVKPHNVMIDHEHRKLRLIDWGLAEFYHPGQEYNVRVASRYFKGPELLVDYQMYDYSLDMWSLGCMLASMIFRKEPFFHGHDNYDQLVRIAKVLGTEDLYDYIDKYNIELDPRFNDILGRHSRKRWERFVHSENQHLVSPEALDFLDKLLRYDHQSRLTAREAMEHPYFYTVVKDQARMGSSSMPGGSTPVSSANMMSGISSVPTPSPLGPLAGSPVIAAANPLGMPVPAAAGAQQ
T1 sequence (P67870 whole entry partner): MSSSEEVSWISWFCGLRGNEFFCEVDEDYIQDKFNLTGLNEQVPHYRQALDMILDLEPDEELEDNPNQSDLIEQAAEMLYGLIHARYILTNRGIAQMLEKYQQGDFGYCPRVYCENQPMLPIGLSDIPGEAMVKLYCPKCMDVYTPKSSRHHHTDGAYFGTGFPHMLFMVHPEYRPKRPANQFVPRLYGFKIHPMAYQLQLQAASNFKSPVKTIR

Usually IC50 stands for the concentration needed to halve the response being measured. As to `Clc1cccc(Nc2nc3cnccc3c3nn4cnccc4c23)c1` [Compound 1, N-(3-chlorophenyl)pyrimido[1′,6′:1,5]pyrazolo[4,3-c][1,7]naphthyridin-6-amine], the 50% inhibitory concentration (IC50) was found to be 3.2 µM in the test with A375 (melanoma); 1700 nM in the test with PC3 (prostate); 4.4 µM in the test on HL60 (leukemia); 1300 nM in the test with MIAPaCa-2 (pancreas); 1500 nM in the test with HCT116 (colon); 47 nM in test [1]. The IC50 in the test with H1299 (lung) was 2600 nM; in the test with MCF7 (breast), 5.7 µM; in the test on MDA-MB-231 (breast), 4.8 µM.
